How the values were obtained:
YAP/TAZ = test: Screening: YAP/TAZ activity reporter (8xGTIIC plasmid) assay in NUGC3 cells (luminescence % of DMSO); format: cell-based, human; conditions: NUGC3 cells, luminescence relative to DMSO, concentration not given
Procedure: (§1) Human gastric cancer cell line NUGC3 was cultured in a DMEM medium (high glucose with L-glutamine and phenol red, produced by FUJIFILM Wako Pure Chemical Corporation) containing 10% fetal bovine serum (produced by Thermo Fisher Scientific Inc.) and penicillin-streptomycin (produced by FUJIFILM Wako Pure Chemical Corporation) (this medium is simply referred to below as “DMEM+10% FBS+1×P/S”). Then, the NUGC3 cells were seeded in a 60-mm culture dish (produced by BioLite) so that the cells were 80% confluent after 24 hours. Subsequently, 5 μg of a reporter plasmid and 15 μL of a lipofection reagent (transIT-LT1, produced by Mirus Bio LLC) were mixed in 500 μL of Opti-MEM medium (produced by Thermo Fisher Scientific, Inc.) to form a complex, which was added to the medium in which the NUGC3 cells were cultured in the 60-mm culture dish. For use as the reporter plasmid, 5 μg of a polyglutamine luciferase reporter was introduced (in the polyglutamine luciferase reporter, a Renilla luciferase expressed in the IRES was located as an internal standard downstream of the sequence of a firefly luciferase sequence to which polyglutamine was added). Alternatively, a YAP/TAZ activity reporter was used by simultaneously introducing 3 μg of 8×GTIIC plasmid and 2 μg of a Renilla luciferase reporter as an internal standard. After another 24 hours, the cells were exfoliated with a 0.05 w/v % trypsin-0.53 mmol/l EDTA-4Na solution (produced by FUJIFILM Wako Pure Chemical Corporation), and then seeded in a 96-well plate (produced by BioLite) so that the cells were 80% confluent after 24 hours. Twenty-four hours after seeding in the 96-well plate, the medium in each well was replaced with 100 μL of a medium (DMEM+10% FBS+an antibiotic) containing 10 μM or 5 μM of a compound for evaluation. After another 24 hours, the medium containing the compound was removed, and the 96-well plate was transferred on ice. Each well was washed with 100 μL of phosphate buffer (PBS, produced by FUJIFILM Wako Pure Chemical Corporation). Thereafter, 20 μL of Passive Lysis Buffer (1×) contained in a Dual-Luciferase Reporter Assay System (produced by Promega Corporation) was added. The plate was then gently shaken for 15 minutes at room temperature to lyse the cells. After confirming that the cells were lysed, 10 μL of the lysate was transferred from each well to each corresponding well of a white 96-well plate (produced by Greiner Bio-one). To each well of the white 96-well plate was added 100 μL of a mixture of a Luciferase Assay Buffer II and Luciferase Assay Substrate contained in the Dual-Luciferase Reporter Assay System (produced by Promega Corporation), whereby the luminescence of the firefly luciferase was induced, and the luminescence intensity was detected with a microluminometer (produced by Berthold Japan K.K.). Subsequently, 100 μL of a mixture of Stop & Glo Buffer and Stop & Glo Substrate contained in the Dual-Luciferase Reporter Assay System (produced by Promega Corporation) was added, whereby the luminescence of firefly luciferase was quenched while the luminescence of Renilla luciferase was induced, and the luminescence intensity was detected with a microluminometer (produced by Berthold Japan K.K.) in a manner similar to the above. The ratio of the luminescence intensity of the firefly luciferase and the luminescence intensity of the Renilla luciferase was calculated, and the luminescence intensity (%) of the wells containing each compound was calculated with the luminescence intensity of the well containing DMSO (dimethyl sulfoxide, used as a solvent for the compound liquids) taken as 100%. […] Unless otherwise specified, the measured values in the table represent the results obtained by evaluation with the addition of 10 μM of each compound for evaluation.

[1] = test system: polyglutamine luciferase reporter; test: Screening: polyglutamine luciferase reporter assay in NUGC3 cells (luminescence % of DMSO); format: cell-based, human; conditions: NUGC3 cells, luminescence relative to DMSO, concentration not given
Procedure: as §1

[2] = YAP/TAZ activity reporter (8×GTIIC)
[3] = polyglutamine luciferase reporter

| SMILES | 8×GTIIC (YAP/TAZ; [2]) [%] | Polyglutamine [1, 3] [%] | 8×GTIIC (YAP/TAZ) [%] | Polyglutamine [1] [%] |
| --- | --- | --- | --- | --- |
| Cc1c(C)c(C)c(S(=O)(=O)CC2CC(C)(C)CC(C)(C)C2)c(C)c1C [SA028] | 59.49 | 60.03 | – | – |
| CCc1cccc(C2CC(c3cccc(C)c3)=NC2S(=O)(=O)c2ccccc2)c1CC (stereo not drawn) [PVZF0049] | – | – | 91.32 | 67.85 |
| CCc1ccc(CC)c(C2CC(c3ccc(C)cc3)=NC2S(=O)(=O)c2ccccc2C)c1 (stereo not drawn) [PVZF0067] | – | – | 34.58 | 32.14 |
| Cc1ccc(C)c(S(=O)(=O)C2CCC(CS(=O)(=O)c3ccccc3)CC2)c1 (single isomer, unassigned) [SA014] | 93.69 | 72.95 | – | – |
| CC(C)c1cc(C(C)C)c(S(=O)(=O)NCC2CCCNC2)c(C(C)C)c1 (stereo not drawn) [PVZF2008] | 70.12 | 64.94 | – | – |
| Cc1ccc(C2=NC(S(=O)(=O)c3ccc(C)cc3)C(c3ccccc3)C2)cc1 (stereo not drawn) [PVZF0072] | – | – | 76.88 | 60.73 |
| Cc1cccc(S(=O)(=O)CC2CCC(C3CC3)CC2)c1 (stereo not drawn) [SA041] | 87.17 | 88.82 | – | – |
| CCc1ccccc1C1CC(c2ccc(C)cc2)=NC1S(=O)(=O)c1ccccc1C (stereo not drawn) [PVZF0065] | – | – | 67.6 | 48.96 |
| O=S(=O)(CC1CCC(S(=O)(=O)c2cccs2)CC1)c1ccc2c(c1)CCCC2 (stereo not drawn) [SA047] | 56.12 | 47.4 | – | – |
| CC(C)(C)c1ccc(S(=O)(=O)CCCC2CCCCC2)cc1 [PVZF2026] | 34.4 | 31.89 | – | – |
| O=S(=O)(CC1CCCC1)c1ccc2ccccc2c1 [PVZF2010] | 24.49 | 33.13 | – | – |
| CCc1ccc(S(=O)(=O)C2CCC(CS(=O)(=O)c3cc(C)cc(C)c3)CC2)cc1 (stereo not drawn) [SA021] | 70.64 | 44.6 | – | – |
| CCc1cccc(C2CC(c3ccccc3)=NC2S(=O)(=O)c2ccc(C)cc2)c1CC (stereo not drawn) [PVZF0068] | – | – | 51.65 | 39.33 |
| Cc1cc(C)c(S(=O)(=O)CC2CC(C)(C)CC(C)(C)C2)cc1C [SA009] | 80.29 | 73.02 | – | – |
| CCc1ccccc1C1CC(c2ccc(C)cc2)=NC1S(=O)(=O)c1ccccc1 (stereo not drawn) [PVZF0063] | – | – | 56.3 | 43.6 |
| CCc1ccc(C2CC(c3ccc(C)cc3)=NC2S(C)(=O)=O)cc1 (stereo not drawn) [PVZF0083] | – | – | 104.5 | 57.89 |
| Cc1ccc(S(=O)(=O)CC2CC(C)(C)CC(C)(C)C2)cc1C(F)(F)F [SA001] | 74.98 | 83.34 | – | – |
| CCc1ccccc1C1CC(c2ccc(C)cc2)=NC1S(C)(=O)=O (stereo not drawn) [PVZF0060] | – | – | 44.13 | 38.44 |
| CCCCCCS(=O)(=O)c1ccccc1 [PVZF2047] | 63.56 | 48.95 | – | – |
| Cc1cc(C)c(S(=O)(=O)CC2CC(C)(C)CC(C)(C)C2)cc1C [SA008] | 57.06 | 51.03 | – | – |
| CCCC(=O)C1CCC(CS(=O)(=O)c2ccc3c(c2)CCC(=O)C3)CC1 (stereo not drawn) [SA022] | 66.88 | 102.2 | – | – |
| O=S(=O)(CCC1CCCCC1)c1ccc2ccccc2c1 [PVZF2015] | 51.25 | 51.29 | – | – |
| CCCc1cc(S(=O)(=O)CC2CC(C)(C)CC(C)(C)C2)ccc1C [SA011] | 67.54 | 60.35 | – | – |
| CC(C)(C)c1cc(C(C)(C)C)cc(S(=O)(=O)CC2CCC(C3CC3)CC2)c1 (stereo not drawn) [SA066] | 64.4 | 66.16 | – | – |
| Cc1ccc(S(=O)(=O)CC2CCC(C3CC3)CC2)c(C)c1 (stereo not drawn) [SA035] | 116.6 | 98.96 | – | – |
| Cc1c(C)c(C)c(S(=O)(=O)CC2CCC(S(C)(=O)=O)CC2)c(C)c1C (stereo not drawn) [SA080] | 62.45 | 55.01 | – | – |

| SMILES | 8×GTIIC (YAP/TAZ; [2]) [%] | Polyglutamine [1, 3] [%] | 8×GTIIC (YAP/TAZ) [%] | Polyglutamine [1] [%] |
| --- | --- | --- | --- | --- |
| O=S(=O)(CC1CCC(C2CC2)CC1)c1ccc(C(F)(F)F)cc1 (stereo not drawn) [SA033] | 96.16 | 96.01 | – | – |
| CCc1cccc(C2CC(c3ccc(C)cc3)=NC2S(=O)(=O)c2ccc(C)cc2)c1CC (stereo not drawn) [PVZF0069] | – | – | 49.99 | 46.34 |
| COc1ccc(S(=O)(=O)C2CCC(CS(=O)(=O)c3c(C)c(C)c(C)c(C)c3C)CC2)cc1 (stereo not drawn) [SA020] | 36.19 | 27.71 | – | – |
| Cc1cc(C(C)C)cc(S(=O)(=O)CC2CCC(S(C)(=O)=O)CC2)c1C (stereo not drawn) [SA078] | 95.87 | 87.12 | – | – |
| O=S(=O)(CCc1ccccc1)c1ccc(C2CCCCC2)cc1 [PVZF2068] | 74.24 | 53.21 | – | – |
| CCCC(=O)C1CCC(CS(=O)(=O)c2ccc(C)c(C)c2)CC1 (stereo not drawn) [SA026] | 46.21 | 63.06 | – | – |
| Cc1ccc(S(=O)(=O)CC2CCC(C3CC3)CC2)cc1C (stereo not drawn) [SA055] | 82.18 | 81.09 | – | – |
| CCc1cccc(C2CC(c3ccc(C)cc3)=NC2S(=O)(=O)c2ccc(C)cc2)c1CC (stereo not drawn) [PVZF0057] | – | – | 61.81 | 50.71 |
| Cc1ccc(C)c(S(=O)(=O)CC2CCC(C3CC3)CC2)c1 (single isomer, unassigned) [SA005] | 90.78 | 76.08 | – | – |
| Cc1cccc(S(=O)(=O)CC2CCC(C3CC3)CC2)c1 (stereo not drawn) [SA054] | 83.34 | 109.1 | – | – |
| CCc1ccc(OC)cc1C1CC(c2ccc(C)cc2)=NC1S(=O)(=O)c1ccc(C)cc1 (stereo not drawn) [PVZF0043] | – | – | 36.69 | 35.33 |
| CCc1ccc(C2=NC(S(=O)(=O)c3ccccc3)C(c3cccc(CC)c3CC)C2)c(CC)c1 (stereo not drawn) [PVZF0054] | – | – | 49.48 | 56.4 |
| Cc1ccc(S(=O)(=O)C2CCC(CS(=O)(=O)c3ccccc3)CC2)cc1 (stereo not drawn) [SA040] | 51.54 | 44.87 | – | – |
| CCS(=O)(=O)C1CCC(CS(=O)(=O)c2ccc(C)cc2)CC1 (stereo not drawn) [SA044] | 63.33 | 87.25 | – | – |
| CCC1CCC(C(C)S(=O)(=O)c2c(C)cc(C(C)(C)C)cc2C)CC1 (stereo not drawn) [SA068] | 110.2 | 81.58 | – | – |
| CCc1ccc(C2CC(c3ccc(C)cc3)=NC2S(=O)(=O)c2ccc(C)cc2)cc1 (stereo not drawn) [PVZF0092] | – | – | 54.44 | 48.91 |
| C=C(CCC)C1CCC(CS(=O)(=O)c2ccc(C)cc2C(C)(C)C)CC1 (stereo not drawn) [SA069] | 67.61 | 76.83 | – | – |
| O=S(=O)(CCCC1CCCCC1)c1ccc(C2CCCCC2)cc1 [PVZF2071] | 70.27 | 63.89 | – | – |
| Cc1ccccc1S(=O)(=O)CC1CCC(S(C)(=O)=O)CC1 (stereo not drawn) [SA059] | 88.99 | 100.9 | – | – |
| CC1(C)CC(CS(=O)(=O)c2ccc3ccccc3c2)CC(C)(C)C1 [PVZF2018] | 73.29 | 61.19 | – | – |
| O=S(=O)(CCc1ccccc1)c1ccc(-c2ccccc2)cc1 [PVZF2032] | 76.99 | 73.08 | – | – |
| CCOc1cc(S(=O)(=O)C2CCC(NS(=O)(=O)c3ccccc3)CC2)ccc1COC (stereo not drawn) [SA018] | 74.98 | 78.85 | – | – |
| CC1CCC(S(=O)(=O)C2CCC(CS(=O)(=O)c3ccccc3)CC2)CC1 (stereo not drawn) [SA072] | 68.16 | 73.98 | – | – |
| CC(C)c1ccc(S(=O)(=O)CC2CCC(C3CC3)CC2)cc1 (stereo not drawn) [SA058] | 35.45 | 76.81 | – | – |
| CC1(C)CC(CS(=O)(=O)c2ccc(C3CCCCC3)cc2)CC(C)(C)S1 [PVZF2072] | 83.58 | 80.1 | – | – |

Reference: patent US20230210834A1, “RNA METHYLTRANSFERASE INHIBITOR, SCREENING METHOD THEREFOR, ANTI-CANCER AGENT EFFICACY ASSESSMENT MARKER, AND KIT FOR EFFECTIVELY PREDICTING FTSJ1 INHIBITOR” (National University Corporation Okayama University, priority 2019, published 2023)
